Results as given in ChEMBL document CHEMBL1909046, “DrugMatrix in vitro pharmacology data”.

Experiments:
[1] = DRUGMATRIX: Calcium Channel Type L, Phenylalkylamine radioligand binding (ligand: [3H] (-)-Desmethoxyverapamil (D-888)); format: cell membranes, Rattus norvegicus, Wistar, Brain, Membrane; conditions: Not Active = under 50% inhibition at 10 µM
Androgen receptor = target: T1, Androgen receptor (Rattus norvegicus, UniProt P15207); note: in other assays of this panel Not Active means under 50% inhibition at 10 µM
T1 sequence (P15207 whole entry): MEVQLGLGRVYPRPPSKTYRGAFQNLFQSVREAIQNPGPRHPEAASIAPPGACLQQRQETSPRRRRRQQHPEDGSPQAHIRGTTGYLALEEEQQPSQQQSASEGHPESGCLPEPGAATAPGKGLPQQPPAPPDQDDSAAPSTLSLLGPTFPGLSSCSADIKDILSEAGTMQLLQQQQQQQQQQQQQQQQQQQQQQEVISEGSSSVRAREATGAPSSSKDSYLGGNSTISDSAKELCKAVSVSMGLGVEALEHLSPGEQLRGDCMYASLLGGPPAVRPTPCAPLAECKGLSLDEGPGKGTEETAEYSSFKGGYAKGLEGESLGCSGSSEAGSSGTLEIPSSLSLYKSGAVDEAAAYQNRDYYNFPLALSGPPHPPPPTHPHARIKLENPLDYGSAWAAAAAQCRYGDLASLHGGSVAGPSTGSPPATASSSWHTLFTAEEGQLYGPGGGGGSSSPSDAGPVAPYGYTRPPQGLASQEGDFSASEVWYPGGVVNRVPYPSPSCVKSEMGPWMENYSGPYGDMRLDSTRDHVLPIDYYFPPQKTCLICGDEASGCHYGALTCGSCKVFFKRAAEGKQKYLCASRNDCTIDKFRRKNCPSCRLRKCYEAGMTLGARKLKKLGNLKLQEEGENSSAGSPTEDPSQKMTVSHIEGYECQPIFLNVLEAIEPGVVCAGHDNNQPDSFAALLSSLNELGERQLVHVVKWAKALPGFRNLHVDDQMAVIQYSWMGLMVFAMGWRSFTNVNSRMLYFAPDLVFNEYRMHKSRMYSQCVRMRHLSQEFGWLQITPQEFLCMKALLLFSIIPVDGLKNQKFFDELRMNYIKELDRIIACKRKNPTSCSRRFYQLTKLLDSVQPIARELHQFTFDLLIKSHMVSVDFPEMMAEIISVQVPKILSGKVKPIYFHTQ

Nitric oxide synthase 1 = Nitric oxide synthase 1 (Rattus norvegicus, UniProt P29476); format: tissue-based, Cerebellum; note: in other assays of this panel Not Active means under 50% inhibition at 10 µM
Calcitonin receptor = target: T2, Calcitonin receptor (Homo sapiens, UniProt P30988); format: cell membranes, Membrane; conditions: t47d; note: in other assays of this panel Not Active means under 50% inhibition at 10 µM
T2 sequence (P30988 whole entry): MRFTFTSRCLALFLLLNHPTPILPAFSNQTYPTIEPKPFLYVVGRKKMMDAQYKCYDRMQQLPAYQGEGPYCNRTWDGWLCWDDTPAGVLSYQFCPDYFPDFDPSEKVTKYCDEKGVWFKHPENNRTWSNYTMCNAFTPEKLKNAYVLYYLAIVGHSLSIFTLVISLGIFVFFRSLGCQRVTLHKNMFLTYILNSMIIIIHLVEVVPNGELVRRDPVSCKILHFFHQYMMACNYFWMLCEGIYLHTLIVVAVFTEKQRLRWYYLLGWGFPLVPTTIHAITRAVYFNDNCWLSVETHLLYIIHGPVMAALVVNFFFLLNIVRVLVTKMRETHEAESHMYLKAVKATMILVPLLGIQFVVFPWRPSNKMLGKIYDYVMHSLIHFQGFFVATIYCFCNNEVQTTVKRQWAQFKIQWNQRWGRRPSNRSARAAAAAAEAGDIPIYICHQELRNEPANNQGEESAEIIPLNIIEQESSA

Adenosine receptor A3 = target: T3, Adenosine receptor A3 (Homo sapiens, UniProt P0DMS8); format: cell membranes, CHO-K1, Membrane;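 note: radioligand binding assay with AB-MECA serving as the labeled ligand; in other assays of this panel Not Active means under 50% inhibition at 10 µM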
T3 sequence (P0DMS8 whole entry): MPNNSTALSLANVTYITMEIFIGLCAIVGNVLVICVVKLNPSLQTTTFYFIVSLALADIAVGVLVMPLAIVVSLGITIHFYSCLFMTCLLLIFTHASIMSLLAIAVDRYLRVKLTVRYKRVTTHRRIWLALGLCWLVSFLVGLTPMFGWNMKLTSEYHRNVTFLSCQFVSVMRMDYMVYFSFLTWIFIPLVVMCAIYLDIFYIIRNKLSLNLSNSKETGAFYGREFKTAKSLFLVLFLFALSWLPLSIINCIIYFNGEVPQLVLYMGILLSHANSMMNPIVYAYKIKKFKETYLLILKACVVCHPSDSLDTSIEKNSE

Nitric oxide synthase 1, sequence (P29476 whole entry): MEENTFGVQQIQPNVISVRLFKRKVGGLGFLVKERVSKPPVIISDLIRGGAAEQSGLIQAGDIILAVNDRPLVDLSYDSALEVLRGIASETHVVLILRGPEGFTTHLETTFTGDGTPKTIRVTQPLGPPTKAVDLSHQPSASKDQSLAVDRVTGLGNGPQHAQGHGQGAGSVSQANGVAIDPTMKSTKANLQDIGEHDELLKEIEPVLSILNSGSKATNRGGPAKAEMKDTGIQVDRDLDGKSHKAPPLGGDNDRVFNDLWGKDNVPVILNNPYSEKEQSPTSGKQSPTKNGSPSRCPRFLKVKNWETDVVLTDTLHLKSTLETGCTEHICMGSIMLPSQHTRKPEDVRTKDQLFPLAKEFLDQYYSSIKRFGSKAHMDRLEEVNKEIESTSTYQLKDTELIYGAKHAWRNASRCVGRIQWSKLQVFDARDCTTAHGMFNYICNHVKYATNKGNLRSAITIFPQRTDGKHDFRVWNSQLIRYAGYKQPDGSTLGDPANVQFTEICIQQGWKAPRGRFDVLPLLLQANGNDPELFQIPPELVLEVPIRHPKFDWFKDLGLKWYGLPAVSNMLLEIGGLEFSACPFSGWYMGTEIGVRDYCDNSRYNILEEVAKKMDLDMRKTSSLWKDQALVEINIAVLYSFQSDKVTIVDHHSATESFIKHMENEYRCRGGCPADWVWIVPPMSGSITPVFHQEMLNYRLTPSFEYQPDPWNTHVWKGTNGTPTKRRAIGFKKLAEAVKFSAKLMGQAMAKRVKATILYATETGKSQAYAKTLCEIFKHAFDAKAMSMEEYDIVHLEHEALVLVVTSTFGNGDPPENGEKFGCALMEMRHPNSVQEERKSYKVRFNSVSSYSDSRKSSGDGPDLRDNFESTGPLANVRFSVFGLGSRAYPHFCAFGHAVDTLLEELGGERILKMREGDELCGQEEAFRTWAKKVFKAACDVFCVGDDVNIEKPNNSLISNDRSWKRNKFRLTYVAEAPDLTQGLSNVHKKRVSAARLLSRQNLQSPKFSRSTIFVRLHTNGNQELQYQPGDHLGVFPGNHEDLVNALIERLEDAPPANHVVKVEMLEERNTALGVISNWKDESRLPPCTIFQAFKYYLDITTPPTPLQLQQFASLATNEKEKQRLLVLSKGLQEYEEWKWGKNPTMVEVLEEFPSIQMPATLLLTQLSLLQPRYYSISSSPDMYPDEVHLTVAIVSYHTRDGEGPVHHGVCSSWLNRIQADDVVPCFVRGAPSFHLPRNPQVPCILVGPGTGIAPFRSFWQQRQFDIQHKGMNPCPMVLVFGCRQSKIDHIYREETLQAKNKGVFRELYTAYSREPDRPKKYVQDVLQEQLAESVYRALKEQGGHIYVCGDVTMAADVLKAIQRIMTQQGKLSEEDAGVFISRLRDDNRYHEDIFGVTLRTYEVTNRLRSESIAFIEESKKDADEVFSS

Compound	IC50 [1]	Ki [1]	IC50 (Androgen receptor)	IC50 (Nitric oxide synthase 1)	IC50 (Calcitonin receptor)	IC50 (Adenosine receptor A3; cho-k1)	IC50 (Adenosine receptor A3; read-out: IC50)	Ki (Adenosine receptor A3; read-out: Ki)	IC50 ([1]; read-out: IC50)	Ki ([1]; read-out: Ki)
Nn1nnc2ccccc21	Not Active	Not Active	Not Active	Not Active	Not Active	Not Active	–	–	–	–
Clc1cc2c(cc1Cl)Oc1cc(Cl)c(Cl)cc1O2 [2,3,7,8-TETRACHLORODIBENZO-P-DIOXIN]	Not Active	Not Active	Not Active	Not Active	Not Active	Not Active	–	–	–	–
CCCCCC[C@H]1C(=O)O[C@H](C)[C@H](NC(=O)c2cccc(NC=O)c2O)C(=O)O[C@@H](C)[C@@H]1OC(=O)CC(C)C [ANTIMYCIN A]	Not Active	Not Active	Not Active	Not Active	Not Active	Not Active	–	–	–	–
C[C@@H]1CC[C@H]2[C@@H](C)C(=O)O[C@@H]3O[C@@]4(C)CC[C@@H]1[C@]32OO4 [ARTEMISININ]	Not Active	Not Active	Not Active	Not Active	Not Active	Not Active	–	–	–	–
CC(C)(C)c1ccc(S(=O)(=O)/C=C/C#N)cc1 [BAY-11-7085]	Not Active	Not Active	Not Active	Not Active	Not Active	Not Active	–	–	–	–
CCc1oc2ccccc2c1C(=O)c1cc(Br)c(O)c(Br)c1 [BENZBROMARONE]	Not Active	Not Active	Not Active	Not Active	Not Active	–	5.22 µM	2.95 µM	–	–
O=c1cc(-c2ccccc2)oc2ccc3ccccc3c12 [BETA-NAPHTHOFLAVONE]	Not Active	Not Active	Not Active	Not Active	Not Active	Not Active	–	–	–	–
O=C(/C=C/c1ccc(O)c(O)c1)OCCc1ccccc1 [CAFFEIC ACID PHENETHYL ESTER]	Not Active	Not Active	Not Active	Not Active	Not Active	Not Active	–	–	–	–
CC(C)(Oc1ccc(C2CC2(Cl)Cl)cc1)C(=O)O (centres undefined) [CIPROFIBRATE]	Not Active	Not Active	Not Active	Not Active	Not Active	Not Active	–	–	–	–
OCCO [ETHYLENE GLYCOL]	Not Active	Not Active	Not Active	Not Active	Not Active	Not Active	–	–	–	–
CC(=O)OCC(CCn1cnc2cnc(N)nc21)COC(C)=O [FAMCICLOVIR]	Not Active	Not Active	Not Active	Not Active	Not Active	Not Active	–	–	–	–
O=C(O)Cc1ccc(-c2ccccc2)cc1 [FELBINAC]	Not Active	Not Active	Not Active	Not Active	Not Active	Not Active	–	–	–	–
Cc1cn[nH]c1 [FOMEPIZOLE]	Not Active	Not Active	Not Active	Not Active	Not Active	Not Active	–	–	–	–
C[C@H]([C@](O)(Cn1cncn1)c1ccc(F)cc1F)S(C)(=O)=O [GENACONAZOLE]	Not Active	Not Active	Not Active	Not Active	Not Active	Not Active	–	–	–	–
COc1ccccc1OCC(O)CO (centres undefined) [GUAIFENESIN]	Not Active	Not Active	Not Active	Not Active	Not Active	Not Active	–	–	–	–
N=C(N)N/N=C/c1c(Cl)cccc1Cl [GUANABENZ]	Not Active	Not Active	Not Active	Not Active	Not Active	Not Active	–	–	–	–

Compound	IC50 [1]	Ki [1]	IC50 (Androgen receptor)	IC50 (Nitric oxide synthase 1)	IC50 (Calcitonin receptor)	IC50 (Adenosine receptor A3; cho-k1)	IC50 (Adenosine receptor A3; read-out: IC50)	Ki (Adenosine receptor A3; read-out: Ki)	IC50 ([1]; read-out: IC50)	Ki ([1]; read-out: Ki)
C[C@]12CCC(=O)C=C1CC[C@@H]1[C@@H]2[C@@H](O)C[C@@]2(C)[C@H]1CC[C@]2(O)C(=O)CO [HYDROCORTISONE]	Not Active	Not Active	Not Active	Not Active	Not Active	Not Active	–	–	–	–
NC[C@H]1O[C@H](O[C@H]2[C@H](O)[C@@H](O[C@H]3O[C@H](CO)[C@@H](O)[C@H](N)[C@H]3O)[C@H](N)C[C@@H]2N)[C@H](O)[C@@H](O)[C@@H]1O [KANAMYCIN]	Not Active	Not Active	–	Not Active	Not Active	Not Active	–	–	–	–
CC[C@H](C)C(=O)O[C@H]1C[C@@H](C)C=C2C=C[C@H](C)[C@H](CC[C@@H]3C[C@@H](O)CC(=O)O3)[C@H]21 [LOVASTATIN]	–	–	–	Not Active	Not Active	Not Active	–	–	6.32 µM	6.14 µM
CC(C(=O)O)c1ccc(CC2CCCC2=O)cc1 (centres undefined) [LOXOPROFEN]	Not Active	Not Active	–	Not Active	Not Active	Not Active	–	–	–	–
Cc1cccc(Nc2ccccc2C(=O)O)c1C [MEFENAMIC ACID]	Not Active	Not Active	–	Not Active	Not Active	Not Active	–	–	–	–
COc1ccccc1OCC(O)COC(N)=O (centres undefined) [METHOCARBAMOL]	Not Active	Not Active	–	Not Active	Not Active	Not Active	–	–	–	–
CN(Cc1cnc2nc(N)nc(N)c2n1)c1ccc(C(=O)N[C@@H](CCC(=O)O)C(=O)O)cc1 [METHOTREXATE]	Not Active	Not Active	Not Active	Not Active	Not Active	Not Active	–	–	–	–
COC(=O)c1ccccc1O [METHYL SALICYLATE]	Not Active	Not Active	–	Not Active	Not Active	Not Active	–	–	–	–
COc1ccc2cc(CCC(C)=O)ccc2c1 [NABUMETONE]	Not Active	Not Active	–	Not Active	Not Active	Not Active	–	–	–	–
O=C(O)c1cccnc1 [NIACIN]	Not Active	Not Active	–	Not Active	Not Active	Not Active	–	–	–	–
C[C@]12C/C(=C/O)C(=O)C[C@@H]1CC[C@@H]1[C@@H]2CC[C@@]2(C)[C@H]1CC[C@]2(C)O [OXYMETHOLONE]	Not Active	Not Active	–	Not Active	Not Active	Not Active	–	–	–	–
CC(C)(CO)C(O)C(=O)NCCCO (centres undefined) [PANTHENOL]	Not Active	Not Active	–	Not Active	Not Active	Not Active	–	–	–	–
OCCN1CCN(CCCN2c3ccccc3Sc3ccc(Cl)cc32)CC1 [PERPHENAZINE]	Not Active	Not Active	–	Not Active	Not Active	Not Active	–	–	–	–
CCCCC1C(=O)N(c2ccccc2)N(c2ccccc2)C1=O [PHENYLBUTAZONE]	Not Active	Not Active	–	Not Active	Not Active	Not Active	–	–	–	–
CC[C@H](C)C(=O)O[C@H]1C[C@H](O)C=C2C=C[C@H](C)[C@H](CC[C@@H](O)C[C@@H](O)CC(=O)O)[C@H]21 [PRAVASTATIN]	Not Active	Not Active	–	Not Active	Not Active	Not Active	–	–	–	–
CC(C)(Sc1cc(C(C)(C)C)c(O)c(C(C)(C)C)c1)Sc1cc(C(C)(C)C)c(O)c(C(C)(C)C)c1 [PROBUCOL]	Not Active	Not Active	–	Not Active	Not Active	Not Active	–	–	–	–
